Measured values taken from US6525001B1, “Substituted pyrimidine and pyridine herbicides” (Mid-American Commercialization Corporation, priority 1997, dated 2003).

Experiments:
Assay in all cases: Test B pre-/postemergence
Assay type in all cases: in vivo
Parameters in all cases: key: 0 is no effect; 10 is complete control
[1] = tested on: pigweed (Amaranthus retroflexus)
In short: (§1)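 Response scores run from 0, meaning no effect, to 10, meaning complete control, assigned by eye relative to controls twelve to sixteen days after spraying. Treatment was both preemergence on planted seed and postemergence on plants at the 1- to 4-leaf stage.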

[2] = tested on: bedstraw (Galium aparine)
In short: as §1

[3] = tested on: blackgrass (Alopecurus myosuroides)
In short: as §1

[4] = tested on: broadleaf signalgrass (Brachiaria decumbens)
In short: as §1

[5] = tested on: momingglory (Ipomoea hederacea)
In short: as §1

[6] = tested on: crabgrass (Digitaria sanguinalis)
In short: as §1

[7] = tested on: corn (Zea mays)
In short: as §1

[8] = tested on: velvetleaf (Abutilon theophrasti)
In short: as §1

[9] = tested on: wild oat (Avena fatua)
In short: as §1

[10] = tested on: wheat (Triticum aestivum)
In short: as §1

[11] = tested on: purple nutsedge (Cyperus rotundus); settings: for Plant response rating, Nutsedge: Preemergence; for Nutsedge plant response rating: Postemergence
In short: as §1

[12] = tested on: sugar beet (Beta vulgaris)
In short: as §1

[13] = tested on: giant foxtail (Setaria faberii)
In short: as §1

[14] = tested on: cocklebur (Xanthium strumarium)
In short: as §1

[15] = Preemergence, Rate 62 g/ha, scale of 0 to 10

Cc1cnc(-n2ccc(C(F)(F)C(F)(F)F)n2)nc1C(=O)c1cccc(OC(F)(F)F)c1 [Compound 62]
4: Plant response rating, Bedstraw ([2]; Rate 500 g/ha, Postemergence) | Plant response rating, Blackgrass ([3]; Rate 500 g/ha, Postemergence) | B. signalgrass plant response rating ([4]; Rate 62 g/ha, Preemergence) | Plant response rating, B. signalgrass ([4]; Rate 125 g/ha, Preemergence) | Morningglory plant response rating ([5]; Rate 125 g/ha, Postemergence) | Plant response rating, Morningglory ([5]; Rate 250 g/ha, Preemergence) | Plant response rating, Wild oats ([9]; Rate 250 g/ha, Preemergence) | Plant response rating, Wild oats ([9]; Rate 500 g/ha, Preemergence) | Plant response rating, Giant foxtail ([13]; Rate 250 g/ha, Preemergence) | Plant response rating, Giant foxtail ([13]; Rate 500 g/ha, Preemergence)
5: Plant response rating, Blackgrass ([3]; Rate 500 g/ha, Preemergence) | Plant response rating, Crabgrass ([6]; Rate 250 g/ha, Postemergence) | Cocklebur plant response rating ([14]; Rate 125 g/ha, Postemergence)
2: Plant response rating, Bedstraw ([2]; Rate 250 g/ha, Preemergence) | Plant response rating, Blackgrass ([3]; Rate 250 g/ha, Postemergence) | B. signalgrass plant response rating ([4]; Rate 62 g/ha, Postemergence) | B. signalgrass plant response rating ([4]; Rate 125 g/ha, Postemergence) | Plant response rating, B. signalgrass ([4]; Rate 250 g/ha, Postemergence) | Plant response rating, Morningglory ([5]; Rate 125 g/ha, Preemergence) | Plant response rating, Crabgrass [6, 15] | Crabgrass plant response rating ([6]; Rate 62 g/ha, Postemergence) | Corn plant response rating ([7]; Rate 125 g/ha, Postemergence) | Plant response rating, Corn ([7]; Rate 250 g/ha, Postemergence) | Plant response rating, Corn ([7]; Rate 500 g/ha, Postemergence) | Plant response rating, Corn ([7]; Rate 500 g/ha, Preemergence) | Velvetleaf plant response rating ([8]; Rate 62 g/ha, Postemergence) | Velvetleaf plant response rating ([8]; Rate 125 g/ha, Postemergence) | Plant response rating, Velvetleaf ([8]; Rate 125 g/ha, Preemergence) | Plant response rating, Velvetleaf ([8]; Rate 250 g/ha, Postemergence) | Plant response rating, Velvetleaf ([8]; Rate 250 g/ha, Preemergence) | Wheat plant response rating ([10]; Rate 125 g/ha, Postemergence) | Plant response rating, Wheat ([10]; Rate 250 g/ha, Postemergence) | Giant foxtail plant response rating ([13]; Rate 125 g/ha, Postemergence) | Plant response rating, Giant foxtail ([13]; Rate 125 g/ha, Preemergence) | Plant response rating, Giant foxtail ([13]; Rate 250 g/ha, Postemergence) | Cocklebur plant response rating ([14]; Rate 62 g/ha, Postemergence)
0: Plant response rating, Bedstraw [2, 15] | Plant response rating, Corn [7, 15] | Plant response rating, Corn ([7]; Rate 125 g/ha, Preemergence) | Plant response rating, Wheat [10, 15] | Plant response rating, Wheat ([10]; Rate 125 g/ha, Preemergence) | Plant response rating, Wheat ([10]; Rate 250 g/ha, Preemergence) | Plant response rating, Wheat ([10]; Rate 500 g/ha, Preemergence) | Plant response rating, Nutsedge ([11]; Rate 62 g/ha, scale of 0 to 10) | Nutsedge plant response rating ([11]; Rate 62 g/ha) | Nutsedge plant response rating ([11]; Rate 125 g/ha) | Plant response rating, Nutsedge ([11]; Rate 125 g/ha) | Plant response rating, Nutsedge ([11]; Rate 250 g/ha) | Plant response rating, Nutsedge ([11]; Rate 500 g/ha) | Plant response rating, Cocklebur [14, 15] | Plant response rating, Cocklebur ([14]; Rate 125 g/ha, Preemergence) | Plant response rating, Cocklebur ([14]; Rate 500 g/ha, Preemergence)
1: Plant response rating, Bedstraw ([2]; Rate 125 g/ha, Preemergence) | Plant response rating, Blackgrass [3, 15] | Blackgrass plant response rating ([3]; Rate 62 g/ha, Postemergence) | Blackgrass plant response rating ([3]; Rate 125 g/ha, Postemergence) | Plant response rating, Blackgrass ([3]; Rate 125 g/ha, Preemergence) | Plant response rating, Blackgrass ([3]; Rate 250 g/ha, Preemergence) | Plant response rating, Morningglory [5, 15] | Corn plant response rating ([7]; Rate 62 g/ha, Postemergence) | Plant response rating, Corn ([7]; Rate 250 g/ha, Preemergence) | Plant response rating, Velvetleaf [8, 15] | Plant response rating, Wild oats [9, 15] | Wild oats plant response rating ([9]; Rate 62 g/ha, Postemergence) | Wild oats plant response rating ([9]; Rate 125 g/ha, Postemergence) | Plant response rating, Wild oats ([9]; Rate 250 g/ha, Postemergence) | Wheat plant response rating ([10]; Rate 62 g/ha, Postemergence) | Plant response rating, Giant foxtail [13, 15] | Giant foxtail plant response rating ([13]; Rate 62 g/ha, Postemergence)
10: Plant response rating, Redroot pigweed ([1]; Rate 250 g/ha, Preemergence) | Plant response rating, Redroot pigweed ([1]; Rate 500 g/ha, Postemergence) | Plant response rating, Redroot pigweed ([1]; Rate 500 g/ha, Preemergence) | Plant response rating, Morningglory ([5]; Rate 500 g/ha, Postemergence) | Plant response rating, Crabgrass ([6]; Rate 500 g/ha, Preemergence) | Plant response rating, Sugarbeets ([12]; Rate 125 g/ha, Preemergence) | Plant response rating, Sugarbeets ([12]; Rate 250 g/ha, Preemergence) | Plant response rating, Sugarbeets ([12]; Rate 500 g/ha, Preemergence)
7: Plant response rating, Morningglory ([5]; Rate 500 g/ha, Preemergence) | Plant response rating, Velvetleaf ([8]; Rate 500 g/ha, Preemergence) | Plant response rating, Cocklebur ([14]; Rate 250 g/ha, Postemergence) | Plant response rating, Cocklebur ([14]; Rate 500 g/ha, Postemergence)
9: Redroot pigweed plant response rating ([1]; Rate 125 g/ha, Postemergence) | Plant response rating, Redroot pigweed ([1]; Rate 125 g/ha, Preemergence) | Plant response rating, Redroot pigweed ([1]; Rate 250 g/ha, Postemergence) | Plant response rating, B. signalgrass ([4]; Rate 500 g/ha, Preemergence) | Plant response rating, Morningglory ([5]; Rate 250 g/ha, Postemergence) | Plant response rating, Crabgrass ([6]; Rate 250 g/ha, Preemergence) | Sugarbeets plant response rating ([12]; Rate 62 g/ha, Postemergence) | Sugarbeets plant response rating ([12]; Rate 125 g/ha, Postemergence) | Plant response rating, Sugarbeets ([12]; Rate 250 g/ha, Postemergence) | Plant response rating, Sugarbeets ([12]; Rate 500 g/ha, Postemergence)
8: Plant response rating, Redroot pigweed [1, 15] | Redroot pigweed plant response rating ([1]; Rate 62 g/ha, Postemergence) | Plant response rating, B. signalgrass ([4]; Rate 250 g/ha, Preemergence) | Plant response rating, Crabgrass ([6]; Rate 500 g/ha, Postemergence) | Plant response rating, Sugarbeets [12, 15]
3: Bedstraw plant response rating ([2]; Rate 62 g/ha, Postemergence) | Bedstraw plant response rating ([2]; Rate 125 g/ha, Postemergence) | Plant response rating, Bedstraw ([2]; Rate 250 g/ha, Postemergence) | Plant response rating, B. signalgrass ([4]; Rate 500 g/ha, Postemergence) | Morningglory plant response rating ([5]; Rate 62 g/ha, Postemergence) | Crabgrass plant response rating ([6]; Rate 125 g/ha, Postemergence) | Plant response rating, Crabgrass ([6]; Rate 125 g/ha, Preemergence) | Plant response rating, Velvetleaf ([8]; Rate 500 g/ha, Postemergence) | Plant response rating, Wild oats ([9]; Rate 125 g/ha, Preemergence) | Plant response rating, Wild oats ([9]; Rate 500 g/ha, Postemergence) | Plant response rating, Wheat ([10]; Rate 500 g/ha, Postemergence) | Plant response rating, Giant foxtail ([13]; Rate 500 g/ha, Postemergence)
6: Plant response rating, Bedstraw ([2]; Rate 500 g/ha, Preemergence)
